Measurements as given in patent US8802353B2, “Compound for resist and radiation-sensitive composition specification” (Mitsubishi Gas Chemical Company, Inc., priority 2004, dated 2014).

Key:
Assay type in all cases: physicochemical
[1] = Glass transition temperature, crystallization temperature and quantity of crystallization heat (DSC); details: for Glass transition temperature: 20° C./min, nitrogen gas flow; for Glass transition temperature-Crystallization temperature: rating of the difference
Protocol: A sample (about 10 mg) placed in a non-sealed aluminum container was heated to a temperature higher than the melting point at a temperature rising rate of 20° C./min in a nitrogen gas flow (50 ml/min). After being rapidly cooled, the sample was again heated to a temperature higher than the melting point at a temperature rising rate of 20° C./min in a nitrogen gas flow (30 ml/min). After being rapidly cooled, the sample was again heated to 400° C. at a temperature rising rate of 20° C./min in a nitrogen gas flow (30 ml/min), to conduct a differential scanning calorimetric analysis using DSC/TA-50WS manufactured by Shimadzu Corporation. The middle point of the region at which the base line turned discontinuous (the point at which the specific heat reduced to half) was taken as the glass transition temperature (Tg) and the temperature of the exothermic peak after the discontinuous region was taken as the crystallization temperature. The quantity of crystallization heat was determined by the area of the region which was surrounded by the exothermic peak and the base line. The sample was rated A when meeting Tg≧130° C., and rated C when meeting Tg≦130° C. Also, the sample was rated A when meeting (glass transition temperature)−(crystallization temperature)≧70° C., and rated C when meeting (glass transition temperature)-(crystallization temperature)<70° C.

[2] = Ultraviolet-visible absorption spectra, absorptivity coefficient at 248 nm; details: 0.01 g/L methanol solution
Protocol: From the ultraviolet-visible absorption spectra of a 0.01 g/L methanol solution of each of Compounds 103, 105 and 108 measured by an autographic spectrophotometer “UV-3100PC” manufactured by Shimadzu Corporation, the absorptivity coefficient at 248 nm of each compound was determined. The absorptivity coefficient was 43.4 L/(cm·g) for Compound 103, 47.4 L/(cm·g) for Compound 105, and 16.9 L/(cm·g) for Compound 108. The absorptivity coefficient is sufficiently larger than 15 L/(cm·g) in any of the compounds, to indicate that the compounds, particularly Compounds 103 and 105, are useful as the raw material of the compound B for forming shade masks. The compounds B produced from these compounds and the radiation-sensitive composition containing such compounds B also have a high absorptivity and are useful for forming shade masks.

[3] = Solubility in safety solvent; details: 23° C.; PGMEA, PGME, ethyl lactate, butyl acetate, methyl 3-methoxypropionate, ethyl propionate
Protocol: The solubility of the compound B was tested at 23° C. using propylene glycol monomethyl ether acetate, propylene glycol monomethyl ether, ethyl lactate, butyl acetate, methyl 3-methoxypropionate and ethyl propionate. The sample was rated A when dissolved in any one of the above solvents in a concentration of 5 wt % or more, rated B when dissolved in a concentration of 0.1 to 5 wt %, and rated C when dissolved only in a concentration of less than 0.1 wt %.

[4] = Film-forming property (spin-coated film on silicon wafer); parameters: key: rated C when the film was clouded or its surface was roughened; rated B when the film was partly clouded or roughened; rated A when the film had a good surface flatness without causing clouding; details: 3% by weight solution spin-coated, 110° C. 3 min
Source text: A 3% by weight solution of the compound B or a mixture (compound B and polyphenol A) in PGME/PE (1/2 by weight) or acetone when not dissolved in PGME/PE was spin-coated on a silicon wafer which had been surface-treated with a silane coupling agent, to form a resist film with a thickness of about 0.05 μm.

[5] = Adhesion to silicon substrate; parameters: key: rated A when the film was not peeled from the silicon wafer; rated C when peeled off; details: silicon wafer surface-treated with silane coupling agent
Protocol: The resist film formed in (2-2) was tested for its adhesion to the silicon wafer which was surface-treated with a silane coupling agent. The sample was rated A when the film was not peeled from the silicon wafer, and rated C when peeled off.

Row | SMILES | Glass transition temperature Rating ([1]; DSC) | Glass transition temperature ([1]; DSC) [°C] | Crystallization temperature ([1]; DSC, exothermic peak) [°C] | absorptivity coefficient at 248 nm [2] [L/cm/g] | film-forming property [4] | Adhesion to silicon substrate [5] | Glass transition temperature-Crystallization temperature [1] | Solubility to safety solvent [3]
1 | Cc1cc(O)c(C(C)C)cc1C(c1ccc2cc(C(c3cc(C(C)C)c(O)cc3C)c3cc(C(C)C)c(O)cc3C)ccc2c1)c1cc(C(C)C)c(O)cc1C [Compound 103] | C (rated C when meeting Tg≦130° C.) | 116 | 190 | 43.4 | – | – | A (rated A when meeting (glass transition temperature)−(crystallization temperature)≧70° C.) | –
2 | Cc1cc(C(c2cc(C(c3cc(C)c(O)c(C)c3C)c3cc(C)c(O)c(C)c3C)cc(C(c3cc(C)c(O)c(C)c3C)c3cc(C)c(O)c(C)c3C)c2)c2cc(C)c(O)c(C)c2C)c(C)c(C)c1O [Compound 108] | A (rated A when meeting Tg≧130° C.) | 125 | – | 16.9 | – | – | A (rated A when meeting (glass transition temperature)−(crystallization temperature)≧70° C.) | –
3 | CC(C)(C)OC(=O)Oc1ccc(-c2cc(-c3ccc(OC(=O)OC(C)(C)C)cc3)cc(-c3ccc(OC(=O)OC(C)(C)C)cc3)c2)cc1 [Compound 204, reference compound] | – | – | – | – | B | A | – | A (rated A when dissolved in any one of the above solvents in a concentration of 5 wt % or more)
4 | Cc1cc(C(C)(c2ccc(OC(C)OC3CCCCC3)c(C)c2)c2ccc3ccccc3c2)ccc1O (stereo not shown) [Compound 208, reference compound] | – | – | – | – | A | A | – | A (rated A when dissolved in any one of the above solvents in a concentration of 5 wt % or more)

Further lines, with some results ahead:

Row | Glass transition temperature Rating ([1]; DSC) | Glass transition temperature ([1]; DSC) [°C] | Crystallization temperature ([1]; DSC, exothermic peak) [°C] | absorptivity coefficient at 248 nm [2] [L/cm/g] | film-forming property [4] | Adhesion to silicon substrate [5] | SMILES | Glass transition temperature-Crystallization temperature [1] | Solubility to safety solvent [3]
5 | A (rated A when meeting Tg≧130° C.) | 156 | – | 47.4 | – | – | Cc1cc(C(c2ccc3ccc(C(c4cc(C)c(O)c(C)c4C)c4cc(C)c(O)c(C)c4C)cc3c2)c2cc(C)c(O)c(C)c2C)c(C)c(C)c1O [Compound 105] | A (rated A when meeting (glass transition temperature)−(crystallization temperature)≧70° C.) | –
6 | – | – | – | – | A | A | CC(C)(C)OC(=O)Oc1ccc(C(c2ccc(OC(=O)OC(C)(C)C)cc2)c2ccc(OC(=O)OC(C)(C)C)cc2)cc1 [Compound 203, reference compound] | – | C (rated C when dissolved only in a concentration of less than 0.1 wt %)
7 | – | – | – | – | A | A | CCOC(C)Oc1ccc(C(C)(c2ccc(O)c(C)c2)c2ccc3ccccc3c2)cc1C (stereo not shown) [Compound 207, reference compound] | – | A (rated A when dissolved in any one of the above solvents in a concentration of 5 wt % or more)
